Consider 17 compounds from ChEMBL document CHEMBL3817766, “Application of the Huisgen cycloaddition and 'click' reaction toward various 1,2,3-triazoles as HIV non-nucleoside reverse transcriptase inhibitors” (Bioorg Med Chem Lett, 2016).

A value given as a limit tells only on which side of the number the result lay.

A short description of data set [1]: Cytotoxicity against mouse EL4.3 cells assessed as reduction in cell viability by MTT assay. The data set is classed as cell-based. (In general: Tetrazolium assays rely on reduction of a dye to a coloured formazan, in cell work by metabolically active cells.)
A short description of data set [2]: Inhibition of HIV reverse transcriptase transfected in HEK293T cells assessed as reduction in viral replication measured at 48 hrs postinfection by luciferase reporter based single-cycle non replicative phenotypic assay. As to conditions: Human immunodeficiency virus 1, HEK-293T. The data set is classed as cell-based. On the technique in general: Reporter assays use an easily measured gene product as a stand-in for the process of interest.

For `CCc1nnn(Cc2cccc(C#N)c2)c1CCO`, the cytotoxic concentration (CC50) (usually the concentration at which the toxic effect on the cells reaches its halfway point) in data set [1] is more than 100 µM. For the same compound, the IC50 (commonly the midpoint of a concentration-inhibition curve) in data set [2] (read-out: IC50) is more than 100 µM. As to `OCc1cn(Cc2ccccc2)nn1`, the cytotoxic concentration (CC50) in data set [1] was more than 100 µM. Moreover, the half-maximal inhibitory concentration (IC50) in data set [2] (read-out: IC50) is more than 83.5 µM. In the same order, the values of `CCc1c(CCO)nnn1Cc1cc(Cl)cc(Cl)c1` are more than 100 µM and 45.2 µM.

As to `CCc1c(CCO)nnn1Cc1ccccc1`, the CC50 in data set [1] is more than 100 µM. Moreover, in data set [2] (read-out: IC50), the IC50 was more than 100 µM.

For the compound `CCc1nn(CCO)nc1C(OC)c1cc(Cl)cc(Cl)c1` (stereo not drawn), the CC50 in data set [1] was determined as 95.1 µM. For the same compound, the half-inhibitory concentration (IC50) in data set [2] (read-out: IC50) amounted to 14.1 µM.

With `OCc1cn(Cc2cc(C(F)(F)F)cc(C(F)(F)F)c2)nn1`, in data set [1], the CC50 is more than 53.4 µM. For the same compound, in data set [2] (read-out: IC50), the concentration for half-maximal inhibition (IC50) is more than 24.5 µM.

Consider `CCc1c(CCO)nnn1Cc1cccc(C#N)c1`, for which the CC50 in data set [1] was more than 100 µM. Moreover, the half-maximal inhibitory concentration (IC50) in data set [2] (read-out: IC50) was more than 100 µM. As to `N#Cc1cccc(Cn2cc(CCO)nn2)c1`, the CC50 in data set [1] was more than 100 µM. For the same compound, the 50% inhibitory concentration (IC50) in data set [2] (read-out: IC50) was more than 83.5 µM.

`CCc1nnn(Cc2cc(Cl)cc(Cl)c2)c1CCO`: in data set [1], the CC50 was more than 100 µM. For the same compound, the half-inhibitory concentration (IC50) in data set [2] (read-out: IC50) was 72.6 µM.

For `CCc1nn(CC)nc1C(OC)c1cc(Cl)cc(Cl)c1` (stereo not drawn), the half-maximal cytotoxic concentration (CC50) in data set [1] turned out to be 89 µM. For the same compound, the half-maximal inhibitory concentration (IC50) in data set [2] (read-out: IC50) was more than 49 µM.

Consider `CCc1nnn(Cc2cc(C)cc(C)c2)c1CCO`, for which, in data set [1], the CC50 was more than 100 µM. Moreover, in data set [2] (read-out: IC50), the IC50 was more than 100 µM. As for `CCc1nn(CCO)nc1Cc1cc(Cl)cc(Cl)c1`, the half-maximal cytotoxic concentration (CC50) in data set [1] was 84.7 µM. Moreover, the IC50 in data set [2] (read-out: IC50) worked out at 23.8 µM. Regarding `CCc1nn(CCO)nc1Cc1cccc(C#N)c1`, the CC50 in data set [1] was more than 100 µM. The IC50 in data set [2] (read-out: IC50) is more than 100 µM.

For the compound `CCc1nn(CCO)nc1Cc1cc(C)cc(C)c1`, the 50% cytotoxic concentration (CC50) in data set [1] was more than 100 µM. Besides, the IC50 in data set [2] (read-out: IC50) was more than 100 µM.

`Cc1cc(C)cc(Cn2cc(CO)nn2)c1`: the CC50 in data set [1] is more than 100 µM. Besides, in data set [2] (read-out: IC50), the IC50 was determined as 27.8 µM. In the same order, the values of `CCc1nnn(Cc2ccccc2)c1CCO` are more than 100 µM and more than 100 µM. With `Cc1ccnc2c1NC(=O)c1cccnc1N2C1CC1` [NEVIRAPINE], in data set [2], the IC50 worked out at 0.091 µM.
